Measured values as given in ChEMBL document CHEMBL1795286, “A concise synthesis and antimicrobial activities of 3-polyamino-23,24-bisnorcholanes as steroid-polyamine conjugates” (2011).

Columns and labels:
Escherichia coli [1] = experiment: Antimicrobial activity against Escherichia coli 851E after 18 hrs by twofold agar dilution method; type: functional
[2] = test system: Acinetobacter calcoaceticus; experiment: Antimicrobial activity against Acinetobacter calcoaceticus ATCC 15473 after 18 hrs by twofold agar dilution method; type: functional; conditions: ATCC 15473, 18 h
Pseudomonas aeruginosa = experiment: Antimicrobial activity against Pseudomonas aeruginosa 6065Y after 18 hrs by twofold agar dilution method; type: functional
Bacillus subtilis = experiment: Antimicrobial activity against Bacillus subtilis ATCC 6633 after 18 hrs by twofold agar dilution method; type: functional; conditions: ATCC 6633, 18 h
Escherichia coli [3] = experiment: Antimicrobial activity against Escherichia coli ATCC 10536 after 18 hrs by twofold agar dilution method; type: functional; conditions: ATCC 10536, 18 h
Moraxella catarrhalis [4] = experiment: Antimicrobial activity against Moraxella catarrhalis 25240 after 18 hrs by twofold agar dilution method; type: functional; conditions: Moraxella catarrhalis, 25240, 18 h
Escherichia coli [5] = experiment: Antimicrobial activity against Escherichia coli ATCC 25922 after 18 hrs by twofold agar dilution method; type: functional; conditions: ATCC 25922, 18 h
Morganella morganii = experiment: Antimicrobial activity against Morganella morganii 1375E after 18 hrs by twofold agar dilution method; type: functional
Enterococcus faecalis = experiment: Antimicrobial activity against Enterococcus faecalis ATCC 29212 after 18 hrs by twofold agar dilution method; type: functional; conditions: ATCC 29212, 18 h, read-out: MIC
Moraxella catarrhalis [6] = experiment: Antimicrobial activity against Moraxella catarrhalis C2431 after 18 hrs by twofold agar dilution method; type: functional; conditions: C2431, 18 h
Citrobacter freundii = experiment: Antimicrobial activity against Citrobacter freundii 8090 after 18 hrs by twofold agar dilution method; type: functional; conditions: Citrobacter freundii, 8090, 18 h
Salmonella typhimurium [7] = experiment: Antimicrobial activity against Salmonella Typhimurium ATCC 14028 after 18 hrs by two-fold agar dilution method; type: functional, Salmonella enterica subsp. enterica serovar Typhimurium; conditions: Salmonella enterica, ATCC 14028, 18 h
Salmonella typhimurium [8] = experiment: Antimicrobial activity against Salmonella typhimurium ATCC 13311 after 18 hrs by twofold agar dilution method; type: functional, Salmonella enterica subsp. enterica serovar Typhimurium; conditions: Salmonella enterica, ATCC 13311, 18 h
Proteus vulgaris = experiment: Antimicrobial activity against Proteus vulgaris 6059 after 18 hrs by twofold agar dilution method; type: functional; conditions: Proteus vulgaris, 6059, 18 h
Klebsiella aerogenes = experiment: Antimicrobial activity against Klebsiella aerogenes harboring beta-lactamase SHV-1 1976E mutant after 18 hrs by twofold agar dilution method; type: functional
Bacillus licheniformis = experiment: Antimicrobial activity against Bacillus licheniformis EMR after 18 hrs by twofold agar dilution method; type: functional
Serratia marcescens [9] = experiment: Antimicrobial activity against Serratia marcescens ATCC 27117 after 18 hrs by twofold agar dilution method; type: functional; conditions: ATCC 27117, 18 h
Staphylococcus aureus [10] = experiment: Antimicrobial activity against Staphylococcus aureus 241 after 18 hrs by twofold agar dilution method; type: functional; conditions: Staphylococcus aureus, 241, 18 h; read-out: MIC
Staphylococcus aureus [11] = experiment: Antimicrobial activity against Staphylococcus aureus ATCC 6538P after 18 hrs by twofold agar dilution method; type: functional
Klebsiella pneumoniae = experiment: Antimicrobial activity against Klebsiella pneumoniae 2011E after 18 hrs by twofold agar dilution method; type: functional
Serratia marcescens [12] = experiment: Antimicrobial activity against Serratia marcescens 1826E after 18 hrs by twofold agar dilution method; type: functional
Staphylococcus aureus [13] = experiment: Antimicrobial activity against Staphylococcus aureus giorgio after 18 hrs by twofold agar dilution method; type: functional
Staphylococcus aureus [14] = experiment: Antimicrobial activity against Staphylococcus aureus 77 after 18 hrs by twofold agar dilution method; type: functional; conditions: Staphylococcus aureus, 77, 18 h
Escherichia coli [15] = experiment: Antimicrobial activity against Escherichia coli 3190Y after 18 hrs by twofold agar dilution method; type: functional
Citrobacter koseri = experiment: Antimicrobial activity against Citrobacter diversus 2046 after 18 hrs by twofold agar dilution method; type: functional; conditions: Citrobacter koseri, 2046, 18 h
[16] = test system: Staphylococcus epidermidis; experiment: Antimicrobial activity against Staphylococcus epidermidis 887E after 18 hrs by twofold agar dilution method; type: functional; conditions: read-out: MIC
Enterobacter cloacae [17] = experiment: Antimicrobial activity against Enterobacter cloacae P99 after 18 hrs by twofold agar dilution method; type: functional; conditions: P99, 18 h
Staphylococcus aureus [18] = experiment: Antimicrobial activity against Staphylococcus aureus ATCC 25923 after 18 hrs by twofold agar dilution method; type: functional; conditions: ATCC 25923, 18 h
Enterobacter cloacae [19] = experiment: Antimicrobial activity against Enterobacter cloacae ATCC 27508 after 18 hrs by twofold agar dilution method; type: functional; conditions: ATCC 27508, 18 h
Micrococcus luteus = experiment: Antimicrobial activity against Micrococcus luteus ATCC 9341 after 18 hrs by twofold agar dilution method; type: functional; conditions: ATCC 9341, 18 h, read-out: MIC
Bacillus cereus = experiment: Antimicrobial activity against Bacillus cereus ATCC 27348 after 18 hrs by twofold agar dilution method; type: functional; conditions: ATCC 27348, 18 h

Structure (SMILES)	MIC (Escherichia coli [1])	MIC [2]	MIC (Pseudomonas aeruginosa)	MIC (Bacillus subtilis)	MIC (Morganella morganii)	MIC (Enterococcus faecalis)	MIC (Moraxella catarrhalis [6])	MIC (Citrobacter freundii)	MIC (Salmonella typhimurium [7])	MIC (Salmonella typhimurium [8])	MIC (Proteus vulgaris)	MIC (Klebsiella aerogenes)	MIC (Serratia marcescens [9])	MIC (Staphylococcus aureus [10])	MIC (Staphylococcus aureus [11])	MIC (Klebsiella pneumoniae)	MIC (Serratia marcescens [12])	MIC (Staphylococcus aureus [13])	MIC (Citrobacter koseri)	MIC [16]	other results
C[C@H](CO)[C@H]1CC[C@H]2[C@@H]3[C@H](F)C[C@H]4C[C@@H](NCCCNCCCCN)CC[C@]4(C)[C@H]3CC[C@]12C.Cl.Cl.Cl	> 32 µg/mL	> 32 µg/mL	> 32 µg/mL	16 µg/mL	> 32 µg/mL	< 32 µg/mL	> 32 µg/mL	> 32 µg/mL	> 32 µg/mL	> 32 µg/mL	> 32 µg/mL	> 32 µg/mL	> 32 µg/mL	8 µg/mL	8 µg/mL	> 32 µg/mL	> 32 µg/mL	8 µg/mL	> 32 µg/mL	16 µg/mL	MIC (Escherichia coli [3]): > 32 µg/mL; MIC (Moraxella catarrhalis [4]; read-out: MIC): 32 µg/mL; MIC (Escherichia coli [5]): > 32 µg/mL; MIC (Bacillus licheniformis; read-out: MIC): < 32 µg/mL; MIC (Staphylococcus aureus [14]; read-out: MIC): 8 µg/mL; MIC (Escherichia coli [15]; read-out: MIC): < 32 µg/mL; MIC (Enterobacter cloacae [17]): > 32 µg/mL; MIC (Staphylococcus aureus [18]): > 32 µg/mL; MIC (Enterobacter cloacae [19]): > 32 µg/mL; MIC (Micrococcus luteus): 16 µg/mL; MIC (Bacillus cereus): > 32 µg/mL
C[C@H](CO)[C@H]1CC[C@H]2[C@@H]3CC[C@@H]4C[C@@H](NCCCNCCCCNCCCN)CC[C@]4(C)[C@H]3CC[C@]12C.Cl.Cl.Cl.Cl	> 32 µg/mL	> 32 µg/mL	> 32 µg/mL	2 µg/mL	> 32 µg/mL	32 µg/mL	> 32 µg/mL	> 32 µg/mL	> 32 µg/mL	> 32 µg/mL	> 32 µg/mL	> 32 µg/mL	> 32 µg/mL	2 µg/mL	1 µg/mL	> 32 µg/mL	> 32 µg/mL	4 µg/mL	> 32 µg/mL	4 µg/mL	MIC (Escherichia coli [3]; read-out: MIC): 32 µg/mL; MIC (Moraxella catarrhalis [4]): > 32 µg/mL; MIC (Escherichia coli [5]; read-out: MIC): 32 µg/mL; MIC (Bacillus licheniformis): > 32 µg/mL; MIC (Staphylococcus aureus [14]; read-out: MIC): 2 µg/mL; MIC (Escherichia coli [15]; read-out: MIC): 32 µg/mL; MIC (Enterobacter cloacae [17]): > 32 µg/mL; MIC (Staphylococcus aureus [18]; read-out: MIC): 16 µg/mL; MIC (Enterobacter cloacae [19]): > 32 µg/mL; MIC (Micrococcus luteus): 2 µg/mL; MIC (Bacillus cereus; read-out: MIC): < 32 µg/mL
C[C@H](CO)[C@H]1CC[C@H]2[C@@H]3CC[C@@H]4C[C@@H](NCCCNCCCCN)CC[C@]4(C)[C@H]3CC[C@]12C.Cl.Cl.Cl	> 32 µg/mL	> 32 µg/mL	> 32 µg/mL	8 µg/mL	> 32 µg/mL	< 32 µg/mL	> 32 µg/mL	> 32 µg/mL	> 32 µg/mL	> 32 µg/mL	> 32 µg/mL	> 32 µg/mL	> 32 µg/mL	8 µg/mL	8 µg/mL	> 32 µg/mL	> 32 µg/mL	16 µg/mL	> 32 µg/mL	32 µg/mL	MIC (Escherichia coli [3]): > 32 µg/mL; MIC (Moraxella catarrhalis [4]): > 32 µg/mL; MIC (Escherichia coli [5]; read-out: MIC): < 32 µg/mL; MIC (Bacillus licheniformis; read-out: MIC): 32 µg/mL; MIC (Staphylococcus aureus [14]): > 32 µg/mL; MIC (Escherichia coli [15]): > 32 µg/mL; MIC (Enterobacter cloacae [17]): > 32 µg/mL; MIC (Staphylococcus aureus [18]; read-out: MIC): 16 µg/mL; MIC (Enterobacter cloacae [19]): > 32 µg/mL; MIC (Micrococcus luteus): 8 µg/mL; MIC (Bacillus cereus; read-out: MIC): 32 µg/mL
C[C@H](CO)[C@H]1CC[C@H]2[C@@H]3CC[C@H]4C[C@H](NCCCNCCCCN)CC[C@]4(C)[C@H]3CC[C@]12C.Cl.Cl.Cl	> 32 µg/mL	> 32 µg/mL	> 32 µg/mL	8 µg/mL	> 32 µg/mL	32 µg/mL	> 32 µg/mL	> 32 µg/mL	> 32 µg/mL	> 32 µg/mL	> 32 µg/mL	> 32 µg/mL	> 32 µg/mL	4 µg/mL	4 µg/mL	> 32 µg/mL	> 32 µg/mL	8 µg/mL	> 32 µg/mL	16 µg/mL	MIC (Escherichia coli [3]; read-out: MIC): 32 µg/mL; MIC (Moraxella catarrhalis [4]; read-out: MIC): < 32 µg/mL; MIC (Escherichia coli [5]; read-out: MIC): 32 µg/mL; MIC (Bacillus licheniformis; read-out: MIC): 16 µg/mL; MIC (Staphylococcus aureus [14]; read-out: MIC): 4 µg/mL; MIC (Escherichia coli [15]): > 32 µg/mL; MIC (Enterobacter cloacae [17]): > 32 µg/mL; MIC (Staphylococcus aureus [18]; read-out: MIC): 16 µg/mL; MIC (Enterobacter cloacae [19]): > 32 µg/mL; MIC (Micrococcus luteus): 8 µg/mL; MIC (Bacillus cereus): > 32 µg/mL
